Holding throughout (assay): Kinase selectivity, scanMAX Kinase assay panel (DiscoverX), % control at 1 uM
Format in all cases: binding

For assay [1], the target named is T1, scanMAX Kinase assay panel (Homo sapiens, UniProt Q13177).
T1 construct: purchased DiscoverX
As to conditions: PAK2; 1 uM; read-out: Percent Control (%). In outline:
(§1)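 Read-out is percent of control, derived from the signal with compound relative to positive and negative controls: (compound − positive)/(negative − positive) × 100. Each enzyme received test drug at 1 uM in DMSO, and values under 35% count as active.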

The target of assay [2] is T2, scanMAX Kinase assay panel (Homo sapiens, UniProt Q16288).
T2 construct: purchased DiscoverX
To be noted: TRKC; 1 uM; read-out: Percent Control (%). In outline:
as §1

Assay [3] addresses T3, scanMAX Kinase assay panel (Homo sapiens, UniProt Q9NRP7).
T3 construct: purchased DiscoverX
T3 sequence (Q9NRP7 1-1315): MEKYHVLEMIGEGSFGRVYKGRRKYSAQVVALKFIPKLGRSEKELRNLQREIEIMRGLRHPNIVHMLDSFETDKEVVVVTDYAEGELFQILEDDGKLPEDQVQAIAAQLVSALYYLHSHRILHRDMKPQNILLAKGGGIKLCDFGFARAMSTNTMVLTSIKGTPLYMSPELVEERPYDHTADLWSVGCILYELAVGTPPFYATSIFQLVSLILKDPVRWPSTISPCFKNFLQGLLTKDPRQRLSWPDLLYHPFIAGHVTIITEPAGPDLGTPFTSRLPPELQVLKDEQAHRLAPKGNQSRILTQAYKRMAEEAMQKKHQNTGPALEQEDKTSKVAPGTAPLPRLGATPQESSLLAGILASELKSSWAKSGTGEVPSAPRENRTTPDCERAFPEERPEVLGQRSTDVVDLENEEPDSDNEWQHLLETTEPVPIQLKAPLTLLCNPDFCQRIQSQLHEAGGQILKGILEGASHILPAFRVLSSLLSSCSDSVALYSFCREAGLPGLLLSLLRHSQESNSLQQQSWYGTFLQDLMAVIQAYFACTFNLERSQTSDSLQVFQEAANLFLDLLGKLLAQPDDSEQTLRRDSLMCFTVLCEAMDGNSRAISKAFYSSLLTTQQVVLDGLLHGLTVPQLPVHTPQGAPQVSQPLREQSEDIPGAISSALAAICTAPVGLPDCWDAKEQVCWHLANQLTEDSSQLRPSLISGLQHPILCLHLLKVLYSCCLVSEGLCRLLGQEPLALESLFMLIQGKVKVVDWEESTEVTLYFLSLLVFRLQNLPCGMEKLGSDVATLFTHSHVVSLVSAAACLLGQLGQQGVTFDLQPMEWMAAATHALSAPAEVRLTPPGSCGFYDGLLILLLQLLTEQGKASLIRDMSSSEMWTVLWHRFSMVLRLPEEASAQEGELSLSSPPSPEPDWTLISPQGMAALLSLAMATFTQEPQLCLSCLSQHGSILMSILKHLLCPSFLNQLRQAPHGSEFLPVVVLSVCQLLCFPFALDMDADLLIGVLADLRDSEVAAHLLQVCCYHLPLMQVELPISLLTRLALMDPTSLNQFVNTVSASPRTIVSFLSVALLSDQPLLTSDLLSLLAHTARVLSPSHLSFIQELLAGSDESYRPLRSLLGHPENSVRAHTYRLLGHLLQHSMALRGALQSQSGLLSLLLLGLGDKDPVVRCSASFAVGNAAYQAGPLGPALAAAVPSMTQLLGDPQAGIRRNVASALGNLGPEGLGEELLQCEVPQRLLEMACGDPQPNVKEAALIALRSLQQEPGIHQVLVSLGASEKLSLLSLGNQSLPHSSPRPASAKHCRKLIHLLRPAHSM
To be noted: STK36; 1 uM; read-out: Percent Control (%). In short, it runs like this:
as §1

For assay [4], the target named is T4, scanMAX Kinase assay panel (Homo sapiens, UniProt P07333).
T4 construct: purchased DiscoverX
To be noted: 1 uM, read-out: Percent Control (%). In short, it runs like this:
as §1

The target in assay [5] is T5, scanMAX Kinase assay panel (Homo sapiens, UniProt Q00535).
T5 construct: purchased DiscoverX
As to conditions: CDK5; 1 uM; read-out: Percent Control (%). In outline: as §1

For assay [6], the target named is T6, scanMAX Kinase assay panel (Homo sapiens, UniProt Q6XUX3).
T6 construct: purchased DiscoverX
T6 sequence (Q6XUX3 1-929): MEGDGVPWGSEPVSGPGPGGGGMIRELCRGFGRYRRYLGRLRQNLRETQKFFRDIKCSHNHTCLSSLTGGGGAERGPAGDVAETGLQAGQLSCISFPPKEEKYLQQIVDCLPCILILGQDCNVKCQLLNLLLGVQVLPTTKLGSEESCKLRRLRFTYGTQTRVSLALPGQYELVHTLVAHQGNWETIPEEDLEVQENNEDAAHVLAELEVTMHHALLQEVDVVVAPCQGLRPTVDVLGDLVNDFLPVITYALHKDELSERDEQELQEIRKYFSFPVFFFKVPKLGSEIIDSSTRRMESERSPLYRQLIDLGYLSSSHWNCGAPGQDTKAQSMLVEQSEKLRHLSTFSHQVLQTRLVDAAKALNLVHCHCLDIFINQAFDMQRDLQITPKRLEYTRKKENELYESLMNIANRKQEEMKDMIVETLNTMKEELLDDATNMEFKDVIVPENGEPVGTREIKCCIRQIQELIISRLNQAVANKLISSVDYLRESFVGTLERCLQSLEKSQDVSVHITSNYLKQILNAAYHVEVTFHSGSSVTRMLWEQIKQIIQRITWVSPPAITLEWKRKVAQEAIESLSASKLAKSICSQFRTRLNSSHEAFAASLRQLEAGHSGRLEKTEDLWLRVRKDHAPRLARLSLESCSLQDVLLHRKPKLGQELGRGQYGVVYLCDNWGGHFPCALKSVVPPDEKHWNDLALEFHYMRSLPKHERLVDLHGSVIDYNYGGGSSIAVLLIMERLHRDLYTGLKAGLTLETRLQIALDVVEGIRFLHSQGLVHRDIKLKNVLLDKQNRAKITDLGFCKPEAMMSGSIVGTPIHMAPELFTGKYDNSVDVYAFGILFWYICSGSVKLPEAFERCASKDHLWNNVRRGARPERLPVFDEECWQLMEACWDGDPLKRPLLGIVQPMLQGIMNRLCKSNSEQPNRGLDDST
As to conditions: RIPK5; 1 uM; read-out: Percent Control (%). In outline: as §1

In assay [7] the target is T7, scanMAX Kinase assay panel (Homo sapiens, UniProt P21860).
T7 construct: purchased DiscoverX
To be noted: ERBB3; 1 uM; read-out: Percent Control (%). In short, it runs like this:
as §1

SMILES strings stand for the structures. Like-named read-outs stand apart in the source and are kept apart here.

These results are taken from patent US10870647B2, “Imidazopyridine derivative, method for preparing same, and pharmaceutical composition containing same as active ingredient for preventing or treating cancer” (DAEGU-GYEONGBUK MEDICAL INNOVATION FOUNDATION, priority 2016, dated 2020).

T2 sequence (Q16288 32-839): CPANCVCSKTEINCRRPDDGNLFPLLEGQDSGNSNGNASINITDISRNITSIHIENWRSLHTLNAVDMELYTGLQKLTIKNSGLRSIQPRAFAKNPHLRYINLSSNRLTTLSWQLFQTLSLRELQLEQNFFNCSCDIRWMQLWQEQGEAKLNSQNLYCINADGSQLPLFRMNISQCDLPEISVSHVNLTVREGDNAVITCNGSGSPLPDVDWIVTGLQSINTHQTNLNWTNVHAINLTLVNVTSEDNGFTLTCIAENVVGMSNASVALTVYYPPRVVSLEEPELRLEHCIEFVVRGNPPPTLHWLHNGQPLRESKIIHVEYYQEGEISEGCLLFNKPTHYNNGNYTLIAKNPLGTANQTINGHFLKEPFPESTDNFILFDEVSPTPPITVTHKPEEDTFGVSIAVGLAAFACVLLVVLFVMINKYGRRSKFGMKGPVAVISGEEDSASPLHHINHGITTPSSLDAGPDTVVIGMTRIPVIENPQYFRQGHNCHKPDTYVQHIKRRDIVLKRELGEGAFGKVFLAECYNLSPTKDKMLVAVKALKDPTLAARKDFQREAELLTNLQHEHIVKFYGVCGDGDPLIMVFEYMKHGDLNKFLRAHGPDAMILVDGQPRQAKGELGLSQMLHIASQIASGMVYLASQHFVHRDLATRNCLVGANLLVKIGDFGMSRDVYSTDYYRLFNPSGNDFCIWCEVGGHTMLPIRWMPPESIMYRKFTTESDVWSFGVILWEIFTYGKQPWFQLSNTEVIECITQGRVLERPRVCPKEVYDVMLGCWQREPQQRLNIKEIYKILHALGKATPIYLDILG
T7 sequence (P21860 20-1342): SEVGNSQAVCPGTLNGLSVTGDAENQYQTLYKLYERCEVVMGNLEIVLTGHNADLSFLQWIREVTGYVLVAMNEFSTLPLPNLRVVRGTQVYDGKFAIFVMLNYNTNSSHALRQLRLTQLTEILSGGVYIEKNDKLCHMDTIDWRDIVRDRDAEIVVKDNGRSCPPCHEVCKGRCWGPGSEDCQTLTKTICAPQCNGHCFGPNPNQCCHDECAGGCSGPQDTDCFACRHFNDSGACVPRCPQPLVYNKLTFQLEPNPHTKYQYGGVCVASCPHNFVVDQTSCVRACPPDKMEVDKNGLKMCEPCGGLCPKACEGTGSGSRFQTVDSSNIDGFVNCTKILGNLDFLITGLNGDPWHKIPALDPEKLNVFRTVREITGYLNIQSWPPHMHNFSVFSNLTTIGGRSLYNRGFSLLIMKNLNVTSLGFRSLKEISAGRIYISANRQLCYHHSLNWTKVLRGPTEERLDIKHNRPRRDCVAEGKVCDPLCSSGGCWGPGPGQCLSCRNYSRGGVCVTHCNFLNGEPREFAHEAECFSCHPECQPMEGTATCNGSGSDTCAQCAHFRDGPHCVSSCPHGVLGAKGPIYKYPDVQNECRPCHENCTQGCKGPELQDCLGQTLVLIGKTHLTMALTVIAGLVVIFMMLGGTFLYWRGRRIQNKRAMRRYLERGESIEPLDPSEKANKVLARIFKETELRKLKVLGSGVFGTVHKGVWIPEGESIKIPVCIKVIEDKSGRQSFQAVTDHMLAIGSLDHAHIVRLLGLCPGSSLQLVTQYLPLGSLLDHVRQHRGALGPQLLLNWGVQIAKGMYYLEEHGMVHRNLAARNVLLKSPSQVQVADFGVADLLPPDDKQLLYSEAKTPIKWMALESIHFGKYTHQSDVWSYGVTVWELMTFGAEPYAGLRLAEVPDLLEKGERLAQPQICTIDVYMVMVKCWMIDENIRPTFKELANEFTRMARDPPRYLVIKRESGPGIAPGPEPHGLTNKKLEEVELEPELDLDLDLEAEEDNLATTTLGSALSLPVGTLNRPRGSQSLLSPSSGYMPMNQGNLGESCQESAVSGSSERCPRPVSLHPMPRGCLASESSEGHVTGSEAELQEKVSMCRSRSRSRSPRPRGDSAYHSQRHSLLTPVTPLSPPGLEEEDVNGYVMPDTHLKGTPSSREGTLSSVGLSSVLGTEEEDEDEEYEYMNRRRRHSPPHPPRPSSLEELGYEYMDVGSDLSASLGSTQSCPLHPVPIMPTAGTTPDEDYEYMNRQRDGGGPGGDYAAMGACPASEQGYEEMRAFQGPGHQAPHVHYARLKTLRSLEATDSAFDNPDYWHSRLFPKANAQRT
T1 sequence (Q13177 whole entry): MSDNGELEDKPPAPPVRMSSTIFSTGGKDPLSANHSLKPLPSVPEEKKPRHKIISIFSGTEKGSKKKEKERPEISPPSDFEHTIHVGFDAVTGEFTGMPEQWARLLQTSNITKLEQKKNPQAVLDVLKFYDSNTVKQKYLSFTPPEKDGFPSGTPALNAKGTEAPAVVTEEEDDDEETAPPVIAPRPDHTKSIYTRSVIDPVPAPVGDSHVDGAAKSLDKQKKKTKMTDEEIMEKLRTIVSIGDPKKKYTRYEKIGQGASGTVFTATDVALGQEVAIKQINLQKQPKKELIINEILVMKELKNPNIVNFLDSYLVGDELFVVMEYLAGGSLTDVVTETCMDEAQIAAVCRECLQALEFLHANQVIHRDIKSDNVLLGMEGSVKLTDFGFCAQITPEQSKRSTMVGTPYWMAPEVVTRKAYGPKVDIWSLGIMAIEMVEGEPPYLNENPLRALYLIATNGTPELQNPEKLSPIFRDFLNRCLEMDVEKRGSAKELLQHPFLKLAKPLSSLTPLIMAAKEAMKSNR
T4 sequence (P07333 20-972): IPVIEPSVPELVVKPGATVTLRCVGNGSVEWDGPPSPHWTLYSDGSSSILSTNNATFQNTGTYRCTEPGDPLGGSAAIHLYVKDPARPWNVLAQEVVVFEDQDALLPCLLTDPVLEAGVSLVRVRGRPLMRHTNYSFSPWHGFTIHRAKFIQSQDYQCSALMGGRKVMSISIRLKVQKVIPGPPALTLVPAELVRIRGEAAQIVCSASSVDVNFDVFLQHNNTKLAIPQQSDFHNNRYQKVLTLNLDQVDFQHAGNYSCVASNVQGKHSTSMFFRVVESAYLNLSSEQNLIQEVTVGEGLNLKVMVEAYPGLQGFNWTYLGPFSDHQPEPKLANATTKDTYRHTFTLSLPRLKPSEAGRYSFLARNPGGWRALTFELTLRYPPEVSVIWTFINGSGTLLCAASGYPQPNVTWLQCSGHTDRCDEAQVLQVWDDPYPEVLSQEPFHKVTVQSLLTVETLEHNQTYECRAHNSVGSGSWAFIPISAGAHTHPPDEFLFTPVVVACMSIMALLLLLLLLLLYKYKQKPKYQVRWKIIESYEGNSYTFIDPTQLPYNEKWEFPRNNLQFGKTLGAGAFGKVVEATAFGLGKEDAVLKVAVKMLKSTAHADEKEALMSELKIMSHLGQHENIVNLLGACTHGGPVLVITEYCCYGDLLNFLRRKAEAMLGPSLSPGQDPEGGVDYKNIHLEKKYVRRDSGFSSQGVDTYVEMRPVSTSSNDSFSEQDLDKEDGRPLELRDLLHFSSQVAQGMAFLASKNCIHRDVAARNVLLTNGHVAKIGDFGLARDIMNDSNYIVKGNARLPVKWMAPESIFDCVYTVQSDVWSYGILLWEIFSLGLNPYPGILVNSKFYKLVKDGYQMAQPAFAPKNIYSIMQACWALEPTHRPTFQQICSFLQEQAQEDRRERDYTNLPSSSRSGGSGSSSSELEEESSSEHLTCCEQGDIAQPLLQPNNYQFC
T5 sequence (Q00535 whole entry): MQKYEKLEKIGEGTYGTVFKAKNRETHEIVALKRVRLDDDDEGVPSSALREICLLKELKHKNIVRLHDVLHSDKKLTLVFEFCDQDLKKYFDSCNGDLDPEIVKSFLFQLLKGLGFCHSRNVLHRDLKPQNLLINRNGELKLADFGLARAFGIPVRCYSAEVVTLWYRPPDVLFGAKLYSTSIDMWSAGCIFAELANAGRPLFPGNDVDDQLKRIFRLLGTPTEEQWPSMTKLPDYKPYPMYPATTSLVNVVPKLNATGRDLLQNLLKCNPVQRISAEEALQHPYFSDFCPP

As for `Cc1ccc(C(=O)Nc2ccc(CN3CCN(C)CC3)c(C(F)(F)F)c2)cc1C#Cc1cnc2c(Nc3cnn(C)c3)cccn12` [Example 1, 4-methyl-3-((8-((1-methyl-1H-pyrazol-4-yl)amino)imidazo[1,2-a]pyridin-3-yl)ethynyl)-N-(4-((4-methylpiperazin-1-yl)methyl)-3-(trifluoromethyl)phenyl)benzamide], the remaining binding at 1 µM was determined as 64% in assay [1]; 0% in assay [2]; 1% in assay [3]; 74% in assay [4] (CSF1R-autoinhibited); 0% in assay [4] (CSF1R); 30% in assay [5]. Besides, the remaining binding at 1 µM in assay [6] turned out to be 41%; in assay [7] it was 86%.

For the compound `Cc1cn(-c2cc(NC(=O)c3ccc(C)c(C#Cc4cnc5c(Nc6cnn(C)c6)cccn45)c3)cc(C(F)(F)F)c2)cn1` [Example 12, 4-methyl-N-(3-(4-methyl-1H-imidazol-1-yl)-5-(trifluoromethyl)phenyl)-3-((8-((1-methyl-1H-pyrazol-4-yl)amino)imidazo[1,2-a]pyridin-3-yl)ethynyl)benzamide], the remaining binding at 1 µM was found to be 54% in assay [1]; 3% in assay [2]; 89% in assay [3]; 100% in assay [4] (CSF1R-autoinhibited); 0% in assay [4] (CSF1R); 89% in assay [5]. The remaining binding at 1 µM in assay [6] stood at 100%; in assay [7], 98%.

`Cc1ccc(NC(=O)C2(C(=O)Nc3ccc(F)cc3)CC2)cc1C#Cc1cnc2c(Nc3cnn(C(C)C)c3)cccn12` [Example 78]: the remaining binding at 1 µM in assay [1] worked out at 100%; in assay [2], 96%; in assay [3], 100%; in assay [4] (CSF1R-autoinhibited), 91%; in assay [4] (CSF1R), 2%; in assay [5], 100%. For the same compound, the remaining binding at 1 µM in assay [6] turned out to be 79%; in assay [7], 99%.
